Laboratory results from US20180304191A1, “METHOD FOR THE SELECTIVE REMOVAL OF HYDROGEN SULFIDE” (BASF SE, priority 2015, published 2018).

Legend:
[1] = Dynamic viscosity (Anton Paar Stabinger SVM3000 viscometer); assay type: physicochemical
Method: The dynamic viscosities of various compounds were measured in a viscometer (Anton Paar Stabinger SVM3000 viscometer).
In addition, the dynamic viscosities of various absorbents (without acid gas loading) were measured in the same instrument.

[2] = Thermal stability (decomposition level of the amine in acid-gas-laden absorbent); assay type: physicochemical; conditions: 160° C., 125 h, 30% by weight amine solution
Method: A Hastelloy cylinder (10 mL) was initially charged with the absorbent (30% by weight amine solution, 8 mL) and the cylinder was closed. […] The acid gas loading of the solutions was 20 m^3 (STP)/tsolvent of CO2 and 20 m^3 (STP)/tsolvent of H2S. The decomposition level of the amines was calculated from the amine concentration measured by gas chromatography before and after the experiment.

[3] = pKA determination by titration with hydrochloric acid (pH at half-equivalence); conditions: for pKA1: 1st dissociation stage; for pKA2: 2nd dissociation stage
Description: Measurement was accomplished using a thermostated closed jacketed vessel in which the liquid was blanketed with nitrogen. The Hamilton Polylite Plus 120 pH electrode was used, which was calibrated with pH 7 and pH 12 buffer solutions.

[4] = absorbent: amine 30% by wt. in EG 70% by wt., without acid gas loading
[5] = absorbent: amine 30% by wt. in sulfolane 70% by wt., without acid gas loading

Row | SMILES | Dynamic viscosity [1, 4] [mPa · s] | Dynamic viscosity ([1]; amine compound itself) [mPa · s] | Thermal stability (comparison in words) [2] | Dynamic viscosity [1, 5] [mPa · s] | pKA1 ([3]; 0.01 mol/kg amine, 20° C.) | pKA2 ([3]; 0.01 mol/kg amine, 20° C.) | ΔpKA1 (120-20° C.) ([3]; difference of pKA1 between 120° C. and 20° C.) | Dynamic viscosity ([1]; absorbent: amine 30% by wt. in TEG 70% by wt., without acid gas loading) [mPa · s] | pKA3 ([3]; 0.01 mol/kg amine, 20° C., 3rd dissociation stage)
1 | CCC(N)(CO)CO [AEPD, 2-amino-2-ethylpropane-1,3-diol, reference compound] | 25.3 | 1844 | – | – | – | – | – | – | –
2 | CN(C)CCOCCNC(C)(C)C [TBAEEDA, 2-(2-tert-butylaminoethoxy)ethyl-N,N-dimethylamine] | – | 1.5 | higher thermal stability than MDEA | 5.5 | 10.4 | 8.4 | 2.4 | – | –
3 | CN(C)CCN(C)CCN(C)C [PMDETA, pentamethyldiethylenetriamine] | – | 1.0 | – | – | 10.3 | 8.8 | – | 15.3 | 6.5
4 | CN(C)CCOCCN(C)C [BDMAEE, bis(2-(N,N-dimethylamino)ethyl) ether] | 12.3 | 0.9 | – | 3.6 | 9.7 | 8.2 | – | – | –
5 | CC(C)(C)NCCOCCO [TBAEE, 2-(2-tert-butylaminoethoxy)ethanol, reference compound] | 17.2 | 16.9 | – | – | – | – | – | – | –
